The values below come from patent publication US10000739B2, “Method and culture medium for improving pluripotent stem cell differentiation inducing efficiency” (NATIONAL UNIVERSITY CORPORATION KUMAMOTO UNIVERSITY, priority 2010, dated 2018).

In the experiment the test system is human iPS cells. How it is done:
For investigating an influence of a proline-added differentiation culture medium on differentiation into hepatocytes, differentiation of human iPS cells into liver precursor cells was induced using a liver differentiation culture medium containing proline added at a concentration of 1 mM.
On a gelatin-coated 96-well plate, mmcM15 cells were seeded as supporting cells. Human iPS cells were treated with Y27632 (10 μM) from 24 hours before seeding, and peeled using 0.25% trypsin. The peeled human iPS cells were seeded on mmcM15 cells at a cell concentration of 1×10^4 cells/well. The seeded human iPS cells were cultured for 24 hours under 37° C. and 5% CO2 in ES culture medium containing Y27632 and bFGF added. After 24 hours, the culture medium was changed to an endoderm differentiation culture medium (Day 0).
In the same manner as in Example 3, the endoderm differentiation culture medium was changed every other day and human iPS cells were cultured under 37° C. and 5% CO2, from the day of initiation of culturing (Day 0) to Day 8.
On Day 10, the culture medium was changed to a liver differentiation culture medium (2000KSR-DMEM culture medium, control culture medium) or Pro-containing 2000KSR-DMEM culture medium obtained by further adding 1 mM proline to a control culture medium, and human iPS cells were cultured until Day 19 under 37° C. and 5% CO2. During Day 10 to Day 19, the culture medium was changed every other day. On Day 19, human iPS cells were subjected to immunofluorescent staining with an anti-Oct3/4 antibody and an anti-AFP antibody.

Setting [1] is: Day 19, methionine deprivation Day 8 to Day 10 and/or 1 mM proline Day 10 to Day 19, vs control group.

Each structure is given as a SMILES string.

For `O=C(O)[C@@H]1CCCN1` [proline], under setting [1], the AFP positive cells entry is “larger” and the Oct3/4 positive cells entry was “decreased”. Moreover, the “AFP and Oct3/4 positive cells” value (proline 10 mM) is given as “the same result as in the case of 1 mM addition”.
